Test system: Human Blood Platelets
Experiment: Platelet aggregation assay (Payton duo-channel aggregometer), PAF-16-induced aggregation in platelet-rich plasma
Assay type: cell-based
Details: agonist PAF-16 20 ng/ml
Description: Platelet Aggregation Assay
The inhibitory effects of Tβ4 on platelet aggregation were tested using a Payton duo-channel aggregometer. This aggregometer produces a plot of % light transmission (directly proportional to % aggregation) vs. time.
For each experiment, one 9 ml blood sample was drawn from a fasting, non-smoking, healthy subject into a propylene tube containing 1 ml of 3.8% sodium-citrate (anti-coagulant). This blood sample was then diluted with 2 ml of phosphate buffer (phosphate-buffer saline with 11 mM glucose and 3 mM sodium citrate). Dilution with phosphate buffer aids in stabilization of the platelet environment and retention of platelet activity for a longer period of time. Platelet-rich plasma (PRP) was prepared by centrifuging the blood for 3 min at 2300 RPM. After removal of PRP, the volume of the remaining blood was brought up to 10 ml by adding phosphate buffer, and the sample was once again centrifuged for the preparation of platelet-poor (PPP). To obtain PPP, we centrifuged the blood for 10 min at 2800 RPM.
Platelet aggregation tests were performed by recording % light transmission (vs. time) through samples of PRP. Before each assay, the aggregometer was adjusted such that PRP gave no light transmission. For aggregation assays, duplicate samples (0.4 ml) of PRP were incubated with 1 mM CaCl2 (to restore the physiologic concentration of Ca^++) for 1 min at 37° C. Different amounts of Tβ4, ranging for 20 to 300 ng, dissolved in 30 μl of distilled/deionized water, were added to each assay. The mixture was then incubated and stirred for an additional 2 min before aggregation was induced with an agonist.
Among the agonists used in the experiments were ADP, epinephrine, arachidonic acid, thrombin, collagen (Sigma Chemicals), and PAF (Platelet-activating factor)-16 (from Calbiochem). Concentrations of these reagents were 1 μm, 10 μm, 100 μg/ml, 0.2 NIH units, 0.05 mg/ml, and 20 ng/ml respectively. Two control assays were run at the beginning and end of each experiment. An assay without Tβ4 (but with an equivalent volume of H2O) constitutes a control, and the % light transmission produced by each control is assigned a value of % 100 for each experiment. For the measurement of % inhibition caused by Tβ4, light transmission in a Tβ4 assay was compared to the average light transmission in the start and end controls, using the following formula: […]

Substance: thymosin beta 4 (SDKPDMAEIEKFDKSKLKKTETQEKNPLPSKETIEQEKQAGES; Thymosin beta-4; UniProt P62328 2-44, looked up) [Tβ4]
- Average % Inhibition of Aggregation (20 ng Tβ4 per assay (0.4 ml PRP)): 50%
- Average % Inhibition of Aggregation (40 ng Tβ4 per assay (0.4 ml PRP)): 90%
- Average % Inhibition of Aggregation (60 ng Tβ4 per assay (0.4 ml PRP)): 100%
- Average % Inhibition of Aggregation (80 ng Tβ4 per assay (0.4 ml PRP)): 95%
- Average % Inhibition of Aggregation (100 ng Tβ4 per assay (0.4 ml PRP)): 92%
- Average % Inhibition of Aggregation (300 ng Tβ4 per assay (0.4 ml PRP)): 84%
